# Measurements from patent US20250002455A1, “NEW N-PHENYLPYRROLAMIDE INHIBITORS OF DNA GYRASE AND TOPOISOMERASE IV WITH ANTIBACTERIAL ACTIVITY” (priority 2020, published 2025).
# pIC50: −log10 of the molar value.
# How the values were obtained:
# [1] = test system: E. coli ATCC 25922; test: Microbroth dilution MIC (CLSI); assay type: cell-based; details: Escherichia coli, ATCC25922; E. coli ATCC 25922; read-out: MIC
# In short: (§1)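 Two-fold dilution series prepared in 100% DMSO and tested by broth microdilution following CLSI M07-A8 or, for anaerobes, M11-A8. MIC taken as the lowest concentration without visible growth.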
# [2] = test system: E. faecium (ATCC 35667); test: Microbroth dilution MIC (CLSI); assay type: cell-based; details: Enterococcus faecium, ATCC35667; E. faecium (ATCC 35667); read-out: MIC
# In short: as §1
# [3] = test system: K. pneumoniae (ATCC 700603); test: Microbroth dilution MIC (CLSI); assay type: cell-based; details: Klebsiella pneumoniae, ATCC700603; K. pneumoniae (ATCC 700603); read-out: MIC
# In short: as §1
# [4] = test system: P. aeruginosa ATCC 27853; test: Microbroth dilution MIC (CLSI); assay type: cell-based; details: Pseudomonas aeruginosa, ATCC27853; P. aeruginosa ATCC 27853; read-out: MIC
# In short: as §1
# [5] = test system: S. aureus ATCC 29213; test: Microbroth dilution MIC (CLSI); assay type: cell-based; details: Staphylococcus aureus, ATCC29213; S. aureus ATCC 29213; read-out: MIC
# In short: as §1
# [6] = test system: A. baumannii (ATCC 19606); test: Microbroth dilution MIC (CLSI); assay type: cell-based; details: Acinetobacter baumannii, ATCC19606; A. baumannii (ATCC 19606); read-out: MIC
# In short: as §1
# [7] = test system: E. aerogenes (ATCC 13408); test: Microbroth dilution MIC (CLSI); assay type: cell-based, Enterobacter aerogenes; details: Klebsiella aerogenes, ATCC13408; E. aerogenes (ATCC 13408); read-out: MIC
# Description: The chemical entities described in the present invention were assessed for their antimicrobial activity using a microbroth dilution assay as recommended by the CLSI (Methods for Dilution Antimicrobial Susceptibility Tests for Bacteria That Grow Aerobically, and Methods for Antimicrobial Susceptibility Testing of Anaerobic Bacteria, Clinical and Laboratory Standards Institute, Document M07-A8, and M11-A8, Wayne, PA 19087, USA, 2012.). Compounds were dissolved by using 100% DMSO. Serial two-fold dilutions of each compound were made by using 100% DMSO as the diluent.
# A library of Gram-negative and Gram-positive microbes and their drug- and multidrug-resistant variants were employed as test organisms. The MIC (minimum inhibitory concentration) was determined as the lowest concentration of an individual drug that lead to no visible growth.
# [8] = target: T1, E. coli topoisomerase IV (Escherichia coli, UniProt P20083); test: biochemical; details: E. coli topo IV; for remaining activity at 10 µM: 10 μM compound, read-out: RA (residual activity of the enzyme)
# T1 construct: purchased Inspiralis
# In short: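 Supercoiling/relaxation read via biotin-oligonucleotide triplex capture on streptavidin plates; reactions 30 min at 37° C, stopped with TF buffer pH 5.0, plasmid stained with SybrGOLD.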
# [9] = target: T2, S. aureus topoisomerase IV (Staphylococcus aureus, UniProt P0C1S7); test: Topoisomerase IV inhibition assay (Inspiralis, streptavidin-coated plates); assay type: biochemical; details: S. aureus topo IV; for pIC50: read-out: IC50; for remaining activity at 10 µM: 10 μM compound, read-out: RA (residual activity of the enzyme)
# T2 construct: purchased Inspiralis
# Description: Inhibitory activities for compounds of the present invention were determined on E. coli and S. aureus DNA gyrase and topoisomerase IV in an assay from Inspiralis on streptavidin-coated 96-well microtiter plates from Thermo scientific Pierce. […] After washing off the unbound oligonucleotide, the enzyme test was performed. […] Reaction solutions were incubated at 37° C. for 30 min. After that, the TF buffer (50 mM NaOAc with pH 5.0, 50 mM NaCl and 50 mM MgCl2) was added to terminate the enzymatic reaction. After additional incubation for 30 min at rt, during which biotin-oligonucleotide-plasmid triplex was formed, the unbound plasmid was washed off using TF buffer and SybrGOLD in T10 buffer (10 mM Tris HCl with pH 8.0 and 1 mM EDTA) was added. […] Initial screening was done at 100 or 10 nM concentration of inhibitors against E. coli DNA gyrase or 1 μM or 100 nM concentration against S. aureus DNA gyrase and E. coli and S. aureus topo IV. […] GraphPad Prism 6.0 software was used to calculate the IC50 values. The result is given as the average value of three independent measurements. […] Chemoth.
# [10] = target: T3, E. coli DNA gyrase (Escherichia coli, UniProt P0AES6); test: biochemical; details: E. coli DNA gyrase; read-out: IC50
# T3 construct: purchased Inspiralis
# In short: (§2)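 Triplex-capture format: plasmid bound to a biotinylated oligonucleotide on streptavidin plates after reaction at 37 °C for 30 min. The reaction was stopped with TF buffer (50 mM NaOAc pH 5.0, 50 mM NaCl, 50 mM MgCl2), and captured DNA was stained with SybrGOLD. IC50 values are the mean of three independent measurements.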
# [11] = target: T4, S. aureus DNA gyrase (Staphylococcus aureus, UniProt P0A0K8); test: biochemical; details: S. aureus DNA gyrase
# T4 construct: purchased Inspiralis
# In short: as §2
# T1 sequence (P0AFI2 whole entry): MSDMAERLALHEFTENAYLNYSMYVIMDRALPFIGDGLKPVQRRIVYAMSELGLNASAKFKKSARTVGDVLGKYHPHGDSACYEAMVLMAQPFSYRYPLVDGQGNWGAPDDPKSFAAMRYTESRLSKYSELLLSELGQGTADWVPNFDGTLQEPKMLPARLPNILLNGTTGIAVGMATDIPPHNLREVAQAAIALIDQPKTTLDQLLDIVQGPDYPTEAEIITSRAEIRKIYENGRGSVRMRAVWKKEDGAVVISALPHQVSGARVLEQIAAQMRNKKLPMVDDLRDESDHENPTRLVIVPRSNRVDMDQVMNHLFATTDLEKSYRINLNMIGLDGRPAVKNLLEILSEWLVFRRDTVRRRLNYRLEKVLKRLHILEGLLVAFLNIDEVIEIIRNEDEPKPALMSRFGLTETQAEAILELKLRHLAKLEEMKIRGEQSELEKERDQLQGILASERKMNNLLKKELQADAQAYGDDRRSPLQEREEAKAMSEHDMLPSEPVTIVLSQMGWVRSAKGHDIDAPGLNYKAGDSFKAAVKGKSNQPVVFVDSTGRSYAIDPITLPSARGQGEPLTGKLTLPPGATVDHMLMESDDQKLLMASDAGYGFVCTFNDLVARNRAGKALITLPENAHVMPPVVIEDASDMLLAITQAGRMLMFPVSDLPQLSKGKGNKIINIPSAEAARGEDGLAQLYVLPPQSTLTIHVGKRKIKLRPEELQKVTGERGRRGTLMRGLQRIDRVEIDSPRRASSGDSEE
# T1 sequence (P20083 whole entry): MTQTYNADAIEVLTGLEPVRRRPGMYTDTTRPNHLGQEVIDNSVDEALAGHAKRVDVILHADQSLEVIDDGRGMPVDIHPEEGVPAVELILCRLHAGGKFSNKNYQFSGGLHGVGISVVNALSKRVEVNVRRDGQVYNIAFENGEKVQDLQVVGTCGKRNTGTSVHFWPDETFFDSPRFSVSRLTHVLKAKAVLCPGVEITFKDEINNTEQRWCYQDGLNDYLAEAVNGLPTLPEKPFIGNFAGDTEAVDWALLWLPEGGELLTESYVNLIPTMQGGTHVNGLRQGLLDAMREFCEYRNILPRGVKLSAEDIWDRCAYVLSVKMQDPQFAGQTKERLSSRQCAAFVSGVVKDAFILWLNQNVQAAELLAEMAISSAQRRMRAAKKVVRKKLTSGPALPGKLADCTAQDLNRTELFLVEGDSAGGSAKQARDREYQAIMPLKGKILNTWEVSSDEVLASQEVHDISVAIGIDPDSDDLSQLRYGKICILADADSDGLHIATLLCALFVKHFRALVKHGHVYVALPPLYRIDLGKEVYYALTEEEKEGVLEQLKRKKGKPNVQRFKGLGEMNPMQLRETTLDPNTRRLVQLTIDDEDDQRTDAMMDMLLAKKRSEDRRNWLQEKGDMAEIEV
# T2 sequence (P0C1U9 whole entry): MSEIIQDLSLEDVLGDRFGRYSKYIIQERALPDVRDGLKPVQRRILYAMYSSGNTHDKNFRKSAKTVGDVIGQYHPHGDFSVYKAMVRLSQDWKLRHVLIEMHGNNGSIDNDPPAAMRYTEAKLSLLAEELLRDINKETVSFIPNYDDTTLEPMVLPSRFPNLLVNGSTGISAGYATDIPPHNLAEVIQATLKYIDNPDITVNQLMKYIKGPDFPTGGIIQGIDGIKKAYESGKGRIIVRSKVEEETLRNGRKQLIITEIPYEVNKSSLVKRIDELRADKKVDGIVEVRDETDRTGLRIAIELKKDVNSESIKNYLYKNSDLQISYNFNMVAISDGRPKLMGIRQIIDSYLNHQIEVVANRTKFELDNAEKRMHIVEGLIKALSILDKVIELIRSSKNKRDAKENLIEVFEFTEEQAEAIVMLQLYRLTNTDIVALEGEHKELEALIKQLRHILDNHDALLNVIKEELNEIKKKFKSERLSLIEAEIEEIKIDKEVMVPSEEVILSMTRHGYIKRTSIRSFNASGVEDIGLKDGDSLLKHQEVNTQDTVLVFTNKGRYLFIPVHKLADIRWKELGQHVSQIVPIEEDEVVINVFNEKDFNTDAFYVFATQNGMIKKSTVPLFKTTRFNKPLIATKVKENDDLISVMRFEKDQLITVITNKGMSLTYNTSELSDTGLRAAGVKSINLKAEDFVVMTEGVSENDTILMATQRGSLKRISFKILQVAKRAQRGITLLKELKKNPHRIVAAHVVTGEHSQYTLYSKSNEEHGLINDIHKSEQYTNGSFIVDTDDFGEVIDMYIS
# T2 sequence (P0C1S7 whole entry): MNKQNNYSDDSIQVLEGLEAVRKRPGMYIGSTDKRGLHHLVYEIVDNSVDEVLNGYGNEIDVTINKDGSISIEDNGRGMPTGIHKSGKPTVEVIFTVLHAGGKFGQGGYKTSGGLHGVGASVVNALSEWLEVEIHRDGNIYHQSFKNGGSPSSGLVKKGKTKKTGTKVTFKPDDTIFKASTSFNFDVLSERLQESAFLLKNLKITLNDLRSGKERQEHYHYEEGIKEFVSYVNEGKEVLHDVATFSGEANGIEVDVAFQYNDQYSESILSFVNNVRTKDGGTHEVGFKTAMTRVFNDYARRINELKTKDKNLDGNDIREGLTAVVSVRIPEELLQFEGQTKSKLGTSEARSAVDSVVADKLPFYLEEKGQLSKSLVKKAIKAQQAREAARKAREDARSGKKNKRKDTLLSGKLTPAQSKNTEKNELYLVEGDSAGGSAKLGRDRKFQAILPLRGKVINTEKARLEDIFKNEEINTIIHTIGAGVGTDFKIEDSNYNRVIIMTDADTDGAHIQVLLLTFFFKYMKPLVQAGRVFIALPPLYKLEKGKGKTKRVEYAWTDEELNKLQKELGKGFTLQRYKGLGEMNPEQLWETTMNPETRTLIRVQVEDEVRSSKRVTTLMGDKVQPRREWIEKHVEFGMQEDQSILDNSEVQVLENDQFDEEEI
# T4 sequence (P20831 whole entry): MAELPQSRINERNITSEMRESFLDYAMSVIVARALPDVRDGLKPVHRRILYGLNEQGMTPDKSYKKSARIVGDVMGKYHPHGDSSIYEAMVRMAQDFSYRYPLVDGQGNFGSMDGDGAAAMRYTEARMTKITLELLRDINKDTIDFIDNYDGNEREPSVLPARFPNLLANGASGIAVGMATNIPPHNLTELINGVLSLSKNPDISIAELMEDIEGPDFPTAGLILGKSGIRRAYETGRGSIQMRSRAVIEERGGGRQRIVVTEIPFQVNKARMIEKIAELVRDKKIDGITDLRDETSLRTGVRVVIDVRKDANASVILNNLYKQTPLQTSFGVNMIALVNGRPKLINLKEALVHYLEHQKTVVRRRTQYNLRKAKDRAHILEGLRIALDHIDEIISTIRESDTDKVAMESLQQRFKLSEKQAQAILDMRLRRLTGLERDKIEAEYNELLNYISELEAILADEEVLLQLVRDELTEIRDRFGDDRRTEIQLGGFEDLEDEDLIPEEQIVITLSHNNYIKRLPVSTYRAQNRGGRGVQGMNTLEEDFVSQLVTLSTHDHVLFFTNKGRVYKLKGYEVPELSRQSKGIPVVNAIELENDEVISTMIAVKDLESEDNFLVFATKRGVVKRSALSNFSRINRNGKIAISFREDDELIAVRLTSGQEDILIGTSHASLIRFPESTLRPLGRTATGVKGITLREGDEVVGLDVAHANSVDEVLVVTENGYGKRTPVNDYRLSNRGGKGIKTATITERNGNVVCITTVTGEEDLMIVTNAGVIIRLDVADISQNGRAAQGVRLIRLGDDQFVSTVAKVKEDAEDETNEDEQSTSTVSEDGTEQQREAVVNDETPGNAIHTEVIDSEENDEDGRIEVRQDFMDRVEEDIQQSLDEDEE
# T4 sequence (P0A0K8 whole entry): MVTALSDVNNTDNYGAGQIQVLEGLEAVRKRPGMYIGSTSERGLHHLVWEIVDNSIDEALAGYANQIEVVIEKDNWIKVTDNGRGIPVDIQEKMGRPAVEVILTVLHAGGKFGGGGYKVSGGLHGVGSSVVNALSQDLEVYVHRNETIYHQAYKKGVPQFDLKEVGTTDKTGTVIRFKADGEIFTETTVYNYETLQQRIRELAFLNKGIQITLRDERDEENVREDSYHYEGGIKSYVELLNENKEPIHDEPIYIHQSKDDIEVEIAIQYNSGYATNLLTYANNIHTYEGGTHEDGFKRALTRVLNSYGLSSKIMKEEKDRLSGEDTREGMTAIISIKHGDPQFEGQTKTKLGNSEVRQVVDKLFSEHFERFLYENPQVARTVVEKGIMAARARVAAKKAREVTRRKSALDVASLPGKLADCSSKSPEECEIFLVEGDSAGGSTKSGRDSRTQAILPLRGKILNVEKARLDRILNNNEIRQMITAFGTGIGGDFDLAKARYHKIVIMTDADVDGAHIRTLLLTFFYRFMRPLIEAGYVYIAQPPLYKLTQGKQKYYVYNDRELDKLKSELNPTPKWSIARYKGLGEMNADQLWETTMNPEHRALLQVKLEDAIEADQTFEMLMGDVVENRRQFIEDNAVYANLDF
SMILES,MIC [1] [µg/mL],MIC [2] [µg/mL],MIC [3] [µg/mL],MIC [4] [µg/mL],MIC [5] [µg/mL],MIC [6] [µg/mL],MIC [7] [µg/mL],remaining activity at 10 µM [8] [%],pIC50 [9],pIC50 [10],pIC50 ([11]; read-out: IC50),remaining activity at 10 µM [9] [%],"remaining activity at 10 µM ([11]; 10 μM compound, read-out: RA (residual activity of the enzyme)) [%]",pIC50 ([8]; read-out: IC50),"remaining activity at 1 µM ([11]; 1 μM compound, read-out: RA (residual activity of the enzyme)) [%]"
"Cc1[nH]c(C(=O)Nc2ccc(C(=O)NCC(=O)O)cc2N2CCNCC2)c(Cl)c1Cl.Cl [Example 36, 4-(5-((Carboxymethyl)carbamoyl)-2-(3,4-dichloro-5-methyl-1H-pyrrole-2-carboxamido)phenyl)piperazin-1-ium chloride]",≥ 64,≥ 64,≥ 64,≥ 64,≥ 64,≥ 64,≥ 64,-43,5.38,7.39,6.21,,,,
"Cl.N[C@H]1CCN(c2cc(C(=O)NCC(=O)O)ccc2NC(=O)c2cc(Br)c(Br)[nH]2)C1 [Example 38, (S)-1-(5-((Carboxymethyl)carbamoyl)-2-(4,5-dibromo-1H-pyrrole-2-carboxamido)phenyl)pyrrolidin-3-aminium chloride]",≥ 64,≥ 64,≥ 64,≥ 64,≥ 64,≥ 64,≥ 64,84,,7.45,,91,46,,
"Cl.O=C(O)CNC(=O)c1ccc(NC(=O)c2cc(Br)c(Br)[nH]2)c(N2CCNCC2)c1 [Example 39, 4-(5-((Carboxymethyl)carbamoyl)-2-(4,5-dibromo-1H-pyrrole-2-carboxamido)phenyl)piperazin-1-ium chloride]",≥ 64,≥ 64,≥ 64,≥ 64,≥ 64,≥ 64,≥ 64,97,,6.08,,73,,,
"Cc1[nH]c(C(=O)Nc2ccc(C(=O)NCc3n[nH]c(=O)o3)cc2N2CCNCC2)c(Cl)c1Cl.Cl [Example 40, 4-(2-(3,4-Dichloro-5-methyl-1H-pyrrole-2-carboxamido)-5-(((5-oxo-4,5-dihydro-1,3,4-oxadiazol-2-yl)methyl)carbamoyl)phenyl)piperazin-1-ium chloride]",≥ 64,≥ 64,≥ 64,≥ 64,≥ 64,≥ 64,≥ 64,,5.57,7.65,,,,5.53,37
